Reference: the supplement of paper PMC10307832

Columns and labels:
Test in all cases: relative viability (nuclei count vs DMSO), 5 days (fraction); higher = more cells survive
Olaparib + Dasatinib = compound: O=C(c1cc(Cc2n[nH]c(=O)c3ccccc23)ccc1F)N1CCN(C(=O)C2CC2)CC1 [Olaparib] + Cc1nc(Nc2ncc(C(=O)Nc3c(C)cccc3Cl)s2)cc(N2CCN(CCO)CC2)n1 [Dasatinib] (partner 0.075 µM)
How it was run: (§1)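 Medians of duplicate plates are given as relative viability. That measure is the nuclei count in treated wells divided by the count in vehicle wells. Counts were taken on 4× images of lung cancer cell lines in 1536-well plates, 5 days after pin-tool dosing the day after seeding with one drug alone or a fixed anchor-drug dose plus five library-drug doses (not always all listed) in √10 steps.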

Carfilzomib + Linsitinib = compound: CC(C)C[C@H](NC(=O)[C@H](CCc1ccccc1)NC(=O)CN1CCOCC1)C(=O)N[C@@H](Cc1ccccc1)C(=O)N[C@@H](CC(C)C)C(=O)[C@@]1(C)CO1 [Carfilzomib] + C[C@]1(O)C[C@@H](c2nc(-c3ccc4ccc(-c5ccccc5)nc4c3)c3c(N)nccn32)C1 [Linsitinib] (partner 1 µM)
How it was run: as §1

Olaparib + OSI-027 = compound: O=C(c1cc(Cc2n[nH]c(=O)c3ccccc23)ccc1F)N1CCN(C(=O)C2CC2)CC1 [Olaparib] + COc1cccc2cc(-c3nc([C@H]4CC[C@H](C(=O)O)CC4)n4ncnc(N)c34)[nH]c12 [OSI-027] (partner 0.5 µM)
How it was run: as §1

Crizotinib + Linsitinib = compound: C[C@@H](Oc1cc(-c2cnn(C3CCNCC3)c2)cnc1N)c1c(Cl)ccc(F)c1Cl [Crizotinib] + C[C@]1(O)C[C@@H](c2nc(-c3ccc4ccc(-c5ccccc5)nc4c3)c3c(N)nccn32)C1 [Linsitinib] (partner 1 µM)
How it was run: as §1

Cell Line	relative viability (Olaparib + Dasatinib; first compound 0.08 µM)	relative viability (Olaparib + Dasatinib; first compound 0.253 µM)	relative viability (Olaparib + Dasatinib; first compound 2.53 µM)	relative viability (Olaparib + Dasatinib; first compound 8 µM)	relative viability (Carfilzomib + Linsitinib; first compound 0.001 µM)	relative viability (Carfilzomib + Linsitinib; first compound 0.003162 µM)	relative viability (Carfilzomib + Linsitinib; first compound 0.01 µM)	relative viability (Carfilzomib + Linsitinib; first compound 0.03162 µM)	relative viability (Carfilzomib + Linsitinib; first compound 0.1 µM)	relative viability (Olaparib + OSI-027; first compound 0.08 µM)	relative viability (Olaparib + OSI-027; first compound 0.253 µM)	relative viability (Olaparib + OSI-027; first compound 2.53 µM)	relative viability (Olaparib + OSI-027; first compound 8 µM)	relative viability (Crizotinib + Linsitinib; first compound 0.01 µM)	relative viability (Crizotinib + Linsitinib; first compound 0.03162 µM)	relative viability (Crizotinib + Linsitinib; first compound 0.1 µM)	relative viability (Crizotinib + Linsitinib; first compound 0.3162 µM)	relative viability (Crizotinib + Linsitinib; first compound 1 µM)
NCI-H460	0.471	0.464	0.32	0.178	0.759	0.891	0.719	0.0155	0.0133	0.677	0.643	0.434	0.215	0.736	0.84	0.718	0.847	–
NCI-H520	0.176	0.178	0.189	0.153	1.01	1.09	0.667	0.152	0.151	0.233	0.246	0.281	0.213	0.831	0.97	0.985	1.04	1.05
NCI-H596	0.597	0.68	0.583	0.454	1.11	1.03	1.16	0.628	0.449	0.718	0.782	0.718	0.642	0.971	1.16	1.07	1.19	1.15
NCI-H647	0.249	0.181	0.189	0.175	0.942	1.16	0.761	0.0416	0.0315	0.701	0.596	0.688	0.482	1.2	0.92	1.12	1.04	1.2
NCI-H650	0.478	0.428	0.424	0.372	0.389	1.19	0.958	0.27	0.176	0.631	0.498	0.5	0.414	0.858	0.868	–	0.596	0.894
NCI-H661	0.801	0.769	0.7	0.715	0.501	0.851	0.552	0.424	0.171	0.7	0.61	0.708	0.621	0.552	0.472	0.521	0.582	0.759
NCI-H727	0.439	0.405	0.469	0.324	0.406	0.249	0.301	0.431	0.117	0.91	0.619	0.546	0.471	0.305	0.282	0.261	0.271	0.409
NCI-H838	0.303	0.259	0.272	0.256	1.02	1.02	1.05	0.676	0.116	0.417	0.367	0.38	0.405	0.938	1.05	–	0.882	1.01
NCI-H1355	0.759	0.731	0.724	0.703	0.795	0.915	0.794	0.487	0.14	0.517	0.399	0.441	0.412	0.869	0.82	0.811	0.799	0.867
NCI-H1395	0.465	0.358	0.39	0.419	1.28	1.16	0.795	1.4	0.307	0.743	0.58	0.524	0.536	1.07	1.17	0.944	1.01	1.03
NCI-H1437	0.548	0.399	0.441	0.39	0.965	1.08	0.984	0.388	0.117	0.967	0.871	0.855	0.771	0.996	–	1.03	0.996	1.04
NCI-H1563	0.485	0.516	0.465	0.42	1.19	1.26	1.25	1.2	0.586	0.75	0.745	0.806	0.753	1.18	1.12	1.22	1.3	1.27
NCI-H1651	0.423	0.311	0.31	0.218	0.982	0.965	0.487	0.0962	0.0748	0.756	0.615	0.545	0.445	1.01	1.01	0.955	1.06	1.07
NCI-H1666	0.883	0.68	0.693	0.651	0.844	0.796	0.79	0.545	0.24	0.845	0.791	0.717	0.758	0.825	0.877	0.774	0.871	0.665
NCI-H1734	0.458	0.399	0.421	0.326	0.871	0.986	0.855	0.715	0.205	0.662	0.516	0.486	0.374	0.888	0.843	0.851	–	0.82
NCI-H1755	0.477	0.399	0.44	0.404	0.984	0.986	0.982	0.97	0.218	0.803	0.64	0.647	0.638	0.872	–	1.07	0.964	0.978
NCI-H1792	0.816	0.689	0.841	0.62	0.492	0.632	0.365	0.633	0.339	0.759	0.652	0.712	0.669	0.519	0.558	0.586	0.473	0.559
NCI-H1915	0.315	0.294	0.28	0.252	1.1	1.1	1.05	0.655	0.106	0.612	0.572	0.533	0.374	1.02	1.09	1.1	–	1.1
NCI-H1944	0.177	0.215	0.178	0.149	1.14	1.24	1.17	1.2	0.489	0.404	0.362	0.369	0.374	1.11	1.07	1.2	1.18	1.21
NCI-H1975	0.396	0.346	0.381	0.364	0.885	0.896	0.562	0.129	0.132	0.761	0.703	0.848	0.758	0.926	1.05	0.91	1.07	1.01
NCI-H1993	0.725	0.556	0.656	0.716	0.758	0.773	0.712	0.607	0.563	0.585	0.502	0.389	0.527	0.711	0.729	0.71	0.76	0.71
NCI-H2009	0.42	0.279	0.304	0.272	1.24	1.28	1.22	0.494	0.0639	0.739	0.601	0.645	0.458	1.17	1.17	1.24	1.17	1.17
NCI-H2023	0.672	0.489	0.528	0.467	0.6	0.768	0.653	0.607	0.0783	0.445	0.356	0.406	0.276	0.734	0.592	0.6	0.486	0.515
NCI-H2085	0.292	0.225	0.241	0.226	0.843	0.835	0.778	0.418	0.235	1.15	0.687	0.698	0.751	0.8	1.03	1	0.926	0.836
NCI-H2087	1.27	0.621	0.804	0.617	0.936	1.05	0.851	0.108	0.119	0.794	0.489	0.501	0.49	0.966	0.976	0.942	0.92	1.07
NCI-H2126	0.728	0.634	0.558	0.606	0.703	0.793	0.695	0.764	0.58	0.766	0.669	0.794	0.639	0.73	0.724	0.706	0.691	0.717
NCI-H2228	0.587	0.495	0.458	0.304	0.592	1.04	0.524	0.156	0.103	0.644	0.386	0.598	0.509	0.629	0.733	0.718	0.371	0.328
NCI-H2347	0.335	0.292	0.293	0.294	0.983	1.06	0.962	0.785	0.391	0.472	0.371	0.344	0.37	0.913	–	1.03	–	0.993
NCI-H2405	0.192	0.181	0.204	0.217	–	1.19	1.01	0.389	0.16	0.717	0.625	0.636	0.583	0.885	0.897	0.882	1.04	0.919
NCI-H3122	0.463	0.823	0.873	0.696	0.958	1.05	0.95	1	0.806	1.14	0.954	1.01	0.814	1.02	1.03	1.08	1.01	1
